Assays:
Format in all cases: cell-based
[1] = molecular target: T1, LPA1 (Homo sapiens, UniProt Q92633); assay: Ca Flux LPA1 assay; set-up: the full-length cDNA for human LPA1 is obtained by PCR of the reverse transcription reaction; expressed in transfected cells
[2] = molecular target: T1, LPA1; assay: LPA1 Migration Assay (Oris); set-up: host or cells: primary fibroblasts (lung, dermal), HFL-1, 3T3 and CHO cells expressing LPA1R; details: read-out: Cell Migration EC50
Procedure, shortened: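 Antagonist inhibition was derived by 4-parameter logistic fitting of migrated-cell counts against compound concentration. Dye-loaded, 12-24 h serum-starved fibroblasts, HFL-1, 3T3 or CHO cells expressing LPA1R moved into an Oris detection zone in response to LPA or serum, then were fixed and counted on a high-content reader.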

[3] = molecular target: T2, LPA/S1P GPCR of interest (Homo sapiens, UniProt Q92633); assay: Beta-Arrestin based assay (PathHunter)
T2 construct: host or cells: CHO
Procedure, shortened: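 EA Parental CHO cells (DiscoverX) were transfected with FuGENE (Roche) using CMV promoter-driven DNA constructs encoding the LPA/S1P GPCR of interest fused to a ProLink tag. Beta-arrestin recruitment in agonist mode was assessed 24-48 hrs later with PathHunter kits. Tests ran in quadruplicate in white 384 well plates, and end point luminescence was fit to a 4 parameter logistic function.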

T2 sequence (Q92633 whole entry): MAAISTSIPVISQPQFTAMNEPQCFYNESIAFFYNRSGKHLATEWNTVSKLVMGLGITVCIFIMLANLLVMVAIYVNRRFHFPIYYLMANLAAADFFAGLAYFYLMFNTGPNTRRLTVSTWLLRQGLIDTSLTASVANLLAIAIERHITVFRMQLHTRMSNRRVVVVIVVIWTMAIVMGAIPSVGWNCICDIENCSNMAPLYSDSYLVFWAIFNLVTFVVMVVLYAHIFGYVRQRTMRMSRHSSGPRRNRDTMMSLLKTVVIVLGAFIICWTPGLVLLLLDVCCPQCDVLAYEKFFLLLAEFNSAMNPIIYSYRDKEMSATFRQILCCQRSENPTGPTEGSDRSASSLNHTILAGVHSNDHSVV
T1 sequence (Q92633 whole entry): as above

IC50 [1] [nM]	EC50 [2] [nM]	EC50 [3] [nM]	SMILES
50 to 500	50 to 500	–	Cc1nsc(-c2ccc(-c3ccc(C4(C(=O)O)CC4)cc3)cc2)c1NC(=O)OC(c1ccccc1)C(F)(F)F (single isomer, unassigned) [IT078]
< 50	50 to 500	< 50	CCC(C)OC(=O)Nc1c(C)noc1-c1ccc(-c2ccc(Oc3ccccc3C(=O)O)cc2)cc1 (single isomer, unassigned) [IT494]
> 500	50 to 500	< 50	C[C@@H](OC(=O)Nc1c(-c2ccc(-c3ccc(Oc4ccccc4C(=O)O)cc3)cc2)oc2ccccc12)c1ccccc1 (single isomer, unassigned) [IT495]
50 to 500	> 500	50 to 500	C[C@@H](OC(=O)Nc1c(-c2ccc(-c3ccc(C4(C(=O)O)CCOCC4)cc3)cc2)cnn1C)c1ccccc1 [IT027]
> 500	> 500	> 500	Cc1nnn(-c2cc(F)c(-c3ccc(C4(C(=O)O)CCOCC4)cc3)cc2F)c1NC(=O)O[C@H](C)c1ccccc1 [IT030]
50 to 500	> 500	–	C[C@@H](OC(=O)Nc1c(C(F)(F)F)nnn1-c1ccc(-c2ccc(C3(C(=O)O)CC3)cc2)cc1)c1ccccc1 [IT072]
50 to 500	> 500	–	Cc1nsc(-c2ccc(C3CCC(C4(C(=O)O)CC4)CC3)cc2)c1NC(=O)O[C@H](C)c1ccccc1 (stereo partly shown) [IT091]
< 50	–	–	C[C@@H](OC(=O)Nc1c(C#Cc2nc3sc(C4(C(=O)O)CC4)cc3s2)cnn1C)c1ccccc1 [IT095]
< 50	–	–	C[C@@H](OC(=O)Nc1c(C#Cc2cc3sc(C4(C(=O)NS(C)(=O)=O)CC4)cc3s2)cnn1C)c1ccccc1 [IT098]
< 50	50 to 500	–	Cc1noc(C#Cc2nc3sc(C4(C(=O)O)CC4)cc3s2)c1NC(=O)O[C@H](C)c1ccccc1 [IT102]
< 50	50 to 500	–	C[C@@H](OC(=O)Nc1c(C#Cc2sc3cc(C4(C(=O)O)CC4)sc3c2C(F)(F)F)cnn1C)c1ccccc1 [IT103]
< 50	50 to 500	< 50	C[C@@H](OC(=O)Nc1c(C#Cc2cc3sc(C4(c5nn[nH]n5)CC4)cc3s2)cnn1C)c1ccccc1 [IT104]
50 to 500	50 to 500	50 to 500	C[C@@H](OC(=O)Nc1c(-c2ccc(-c3ccc(C4(C(=O)OC5OC(C(=O)O)C(O)C(O)C5O)CC4)cc3)cc2)cnn1C)c1ccccc1 (stereo partly shown) [IT105]
< 50	> 500	50 to 500	C[C@@H](OC(=O)Nc1ccncc1C#Cc1cc2sc(C3(C(=O)O)CC3)cc2s1)c1ccccc1 [IT106]
< 50	50 to 500	< 50	Cc1c(C2(C(=O)O)CC2)sc2cc(C#Cc3cnn(C)c3NC(=O)O[C@H](C)c3ccccc3)sc12 [IT107]
> 500	> 500	> 500	C[C@@H](OC(=O)Nc1sncc1C#Cc1cc2sc(C3(C(=O)O)CC3)cc2s1)c1ccccc1 [IT108]
50 to 500	50 to 500	< 50	Cc1noc(-c2ccc(-c3nc4sc(C5(C(=O)O)CC5)cc4s3)cc2)c1NC(=O)O[C@H](C)c1ccccc1 [IT111]
< 50	50 to 500	< 50	C[C@@H](OC(=O)Nc1c(-c2ccc(-c3ccc(C4(C(=O)O)CC4)c4c3CCC4)cc2)cnn1C)c1ccccc1 [IT112]
50 to 500	< 50	< 50	Cn1ncc(C#Cc2cc3sc(C4(C(=O)O)CC4)cc3s2)c1NC(=O)O[C@@H](c1ccccc1)C(F)(F)F [IT114]
< 50	50 to 500	< 50	Cc1noc(-c2cc3sc(C#CC4(C(=O)O)CC4)cc3s2)c1NC(=O)O[C@H](C)c1ccccc1 [IT117]
> 500	50 to 500	< 50	C[C@@H](OC(=O)Nc1c(-c2cc3sc(-c4ccc(C5(C(=O)O)CC5)cc4)cc3s2)cnn1C)c1ccccc1 [IT119]
> 500	50 to 500	< 50	Cc1nsc(-c2cc3sc(-c4ccc(C5(C(=O)O)CC5)cc4)cc3s2)c1NC(=O)O[C@H](C)c1ccccc1 [IT120]
> 500	< 50	< 50	C[C@@H](OC(=O)Nc1c(-c2cc(F)c(-c3cc4sc(C5(C(=O)O)CC5)cc4s3)cc2F)cnn1C)c1ccccc1 [IT121]
50 to 500	–	< 50	CCc1nc(C(=O)O)c(Oc2ccc(-c3ccc(-c4onc(C)c4NC(=O)O[C@H](C)c4ccccc4)cc3)cc2)o1 [IT434]
–	50 to 500	< 50	C[C@@H](OC(=O)Nc1c(-c2ccc(-c3ccc(Oc4ccc(F)cc4C(=O)O)cc3)cc2)cnn1C)c1ccccc1 [IT461]
–	< 50	< 50	Cc1nsc(-c2ccc(-c3cc(F)c(Oc4ccsc4C(=O)O)c(F)c3)cc2)c1NC(=O)O[C@H](C)c1ccccc1 [IT462]

IC50 [1] [nM]	EC50 [2] [nM]	EC50 [3] [nM]	SMILES
–	< 50	< 50	Cc1noc(-c2ccc(-c3cc(F)c(Oc4ccsc4C(=O)O)c(F)c3)cc2)c1NC(=O)O[C@H](C)c1ccccc1 [IT463]
–	50 to 500	< 50	Cc1nsc(-c2ccc(-c3cc(F)c(Oc4cccnc4C(=O)O)c(F)c3)cc2)c1NC(=O)O[C@H](C)c1ccccc1 [IT464]
–	< 50	< 50	C[C@@H](OC(=O)Nc1c(-c2ccc(-c3cc(F)c(Oc4ccsc4C(=O)O)c(F)c3)cc2)cnn1C)c1ccccc1 [IT465]
–	50 to 500	< 50	Cc1noc(-c2ccc(-c3ccc(Oc4cc(F)ccc4C(=O)O)cc3)cc2)c1NC(=O)O[C@H](C)c1ccccc1 [IT467]
–	< 50	< 50	C[C@@H](OC(=O)Nc1c(-c2ccc(-c3ccc(Oc4cc(F)ccc4C(=O)O)cc3)cc2)nnn1C)c1ccccc1 [IT468]
–	50 to 500	< 50	C[C@@H](OC(=O)Nc1c(-c2ccc(-c3ccc(Oc4cc(F)ccc4C(=O)O)cc3)cc2)cnn1C)c1ccccc1 [IT469]
–	> 500	< 50	CCOC(=O)c1cccnc1Oc1c(F)cc(-c2ccc(-c3nnn(C)c3NC(=O)O[C@H](C)c3ccccc3)cc2)cc1F [IT476]
–	50 to 500	< 50	CCOC(=O)c1ccccc1Oc1ccc(-c2ccc(-c3nnn(C)c3NC(=O)O[C@H](C)c3ccccc3)cc2)cc1 [IT477]
–	50 to 500	50 to 500	COC(=O)c1ccccc1Oc1ccc(-c2ccc(-c3nnn(C)c3NC(=O)O[C@H](C)c3ccccc3)cc2)cc1 [IT478]
–	50 to 500	< 50	Cc1noc(-c2ccc(-c3ccc(Oc4nc5ccccc5cc4C(=O)O)cc3)cc2)c1NC(=O)O[C@H](C)c1ccccc1 [IT482]
–	> 500	50 to 500	Cc1noc(-c2ccc(-c3ccc(Oc4ncn(C)c4C(=O)O)cc3)cc2)c1NC(=O)O[C@H](C)c1ccccc1 [IT486]
–	50 to 500	50 to 500	Cc1noc(-c2cc3sc(-c4cc(F)c(OC5(C(=O)O)CC5)c(F)c4)cc3s2)c1NC(=O)O[C@H](C)c1ccccc1 [IT488]
–	> 500	50 to 500	C[C@@H](OC(=O)Nc1c(-c2ccc(-c3cc(F)c(OC4(C(=O)O)CC4)c(F)c3)cc2)oc2ccccc12)c1ccccc1 [IT491]
–	> 500	50 to 500	C[C@@H](OC(=O)Nc1c(-c2ccc(-c3ccc(OC4(C(=O)O)CC4)c(F)c3)cc2)oc2ccccc12)c1ccccc1 [IT492]
–	50 to 500	< 50	Cc1noc(-c2ccc(-c3ccc4c(c3)CC(C)(C(=O)O)O4)cc2)c1NC(=O)O[C@H](C)c1ccccc1 (stereo partly shown) [IT498]
–	> 500	> 500	Cc1noc(-c2cc3cc4sc(CC(=O)O)cc4cc3s2)c1NC(=O)O[C@H](C)c1ccccc1 [IT499]
–	50 to 500	< 50	Cc1noc(-c2ccc(-c3cc(F)c(OC(C)(C)C(=O)O)c(F)c3)cc2)c1NC(=O)O[C@H](C)c1ccccc1 [IT500]
–	> 500	50 to 500	Cc1nsc(-c2ccc(-c3cc(F)c(OC(C)(C)C(=O)O)c(F)c3)cc2)c1NC(=O)O[C@H](C)c1ccccc1 [IT502]
–	> 500	50 to 500	C[C@@H](OC(=O)Nc1c(-c2ccc(-c3cc(F)c(OC(C)(C)C(=O)O)c(F)c3)cc2)cnn1C)c1ccccc1 [IT503]
–	50 to 500	< 50	Cc1noc(-c2ccc(-c3ccc(OC(C)(C)C(=O)O)c(F)c3)cc2)c1NC(=O)O[C@H](C)c1ccccc1 [IT506]
–	> 500	50 to 500	Cc1nsc(-c2ccc(-c3ccc(OC(C)(C)C(=O)O)c(F)c3)cc2)c1NC(=O)O[C@H](C)c1ccccc1 [IT507]
–	> 500	50 to 500	Cc1nsc(-c2ccc(-c3ccc(OC(C)(C)C(=O)O)cc3)cc2)c1NC(=O)O[C@H](C)c1ccccc1 [IT509]
–	> 500	50 to 500	C[C@@H](OC(=O)Nc1c(-c2ccc(-c3ccc(OC(C)(C)C(=O)O)cc3)cc2)cnn1C)c1ccccc1 [IT510]
–	50 to 500	< 50	C[C@@H](OC(=O)Nc1c(-c2ccc(-c3ccc(OC4(C(=O)O)CC4)cc3)cc2)cnn1C)c1ccccc1 [IT511]
–	> 500	50 to 500	C[C@@H](OC(=O)Nc1c(-c2ccc(-c3ccc(OC4(C(=O)O)CC4)cc3)cc2)oc2ccccc12)c1ccccc1 [IT512]
–	50 to 500	< 50	Cc1nsc(-c2ccc(-c3ccc(OC4(C(=O)O)CC4)cc3)cc2)c1NC(=O)O[C@H](C)c1ccccc1 [IT513]
